Laboratory results from a melting point compilation (Tetko et al.; mined from patent text by program, amines drawn as free bases though some values may be those of a salt).

Row | Structure (SMILES) | melting point [°C]
1 | COc1cccc2nc(-c3cc(C)c(OCCN4CCCC4)c(C)c3)[nH]c(=O)c12 | 157 to 158
2 | CSc1c2c3c(cccc3n1C)C1C=C(C)CN(C)C1C2 (stereo not given) | 115 to 116
3 | COc1nc2ccc([N+](=O)[O-])cc2nc1Cl | 155 to 158
4 | CCCCCCCCCCCCc1cc2cc(C(=O)OCCCC)ccc2[nH]1 | 74 to 76
5 | O=C1CCCc2cc(F)cc(F)c21 | 57 to 58
6 | CSCCC(NC(C)=O)C(=O)N1CC1C#N (stereo not given) | 86 to 88
7 | COc1cc(C(=O)c2csc(-c3ccncc3)n2)cc(OC)c1OC | 178 to 180
8 | CCNC(=O)N(CC)C(=O)c1nc(Cl)c(Cl)[nH]1 | 146
9 | CCCCS(=O)(=O)N1C(SCc2ccc(OC)cc2)=NC(C)(c2cccc([N+](=O)[O-])c2)C(C)(C(=O)OCC)C1c1cccc([N+](=O)[O-])c1 (stereo not given) | 66 to 68
10 | C=CCn1c(=O)c(C(=O)OCC)c(N2CCCC2)c2ccc(C)nc21 | 97 to 103
11 | Cc1ccc([PH](=O)c2ccc(C)cc2)cc1 | 93.7
12 | Cc1[nH]c2ccccc2c1CC(=O)N1CCN(C(c2ccc(F)cc2)c2ccc(F)cc2)CC1 | 93 to 103
13 | N#CCc1ccc(CCOc2ccc(CC3SC(=N)NC3=O)cc2)nc1 (stereo not given) | 211 to 212
14 | CCOC(=O)C1=C(C)NC(C(OCC)OCC)=C(C(=O)OCC)C1c1ccccc1[N+](=O)[O-] (stereo not given) | 80 to 81.5
15 | Cc1ccc(NC(=O)c2ccc3c(c2)C(=O)N(c2c(Cl)cccc2Cl)C3=O)cc1C | 238 to 240
16 | CN(CCO)S(=O)(=O)c1cc(NC(=O)c2cnn3c(C(F)(F)F)cc(-c4ccc(C(F)(F)F)cc4)nc23)c(Cl)s1 | 221
17 | N#CC1CCN(C(=O)c2ccc3nonc3c2)CC1 | 104 to 107
18 | C#CCn1ccc(CO)c1C(F)(F)F | 63
19 | CCOC(=O)C(=O)Nc1ccc(C(=O)O)cc1NC(=O)C(=O)OCC | 251
20 | CCCCOC(=O)NC(=O)C(C)(c1ccccc1)c1ccccc1 | 83
21 | CN(C)c1ncnc2c1ncn2C1CC(F)C(CO)O1 (stereo not given) | 105 to 107

Row | Structure (SMILES) | melting point [°C]
22 | CCOC(=O)C(=O)Nc1ccc(OC)cc1[N+](=O)[O-] | 151
23 | N#Cc1nn(-c2c(Cl)cc(C(F)(F)F)cc2Cl)c(N)c1-c1ccc(Br)s1 | 214
24 | COC(=O)c1c(C)oc2ccccc2c1=O | 116 to 118
25 | CCOC(=O)c1cc(O)c2ccc3c(c2c1-c1cc(OC)c(OC)c(OC)c1)OCO3 | 151 to 152
26 | Clc1nc2cc(Cl)c(Cl)c(Cl)c2[nH]1 | 243 to 244
27 | Nc1ncc(Br)cc1O | 195 to 197
28 | COCCOc1cc(N(C)S(=O)(=O)c2cccs2)c2[nH]c(C3=NCC(CC(=O)O)S3)cc2c1 (stereo not given) | 113 to 114
29 | COC(=O)CC1OCCN(CCc2c[nH]c3ccccc23)C1=O (stereo not given) | 144
30 | CCOC(=O)c1cc(CC)sc1Nc1ccc(Cl)cc1N | 119 to 121
31 | CC(C)(C)OC(=O)COc1cc(NC(=O)OC(C)(C)C)c([N+](=O)[O-])cc1C#Cc1ccccc1 | 130
32 | COc1cc2c(cc1OC)CN(C(=O)Cc1ccc(OC)c([N+](=O)[O-])c1)CC2 | 175
33 | OC(CCCCCOc1ccccc1)c1cccc(OCc2ccc3ccccc3n2)c1 (stereo not given) | 83 to 84.5
34 | CCCCCCCCN(CCCCCCCC)C(=O)CS(=O)(=O)Nc1c(C(C)C)cccc1C(C)C | 107 to 109
35 | CCCCCCCCCCc1ccc2cc(/C=C/c3cc4ccc(CCCCCCCCCC)cc4cc3SC)c(SC)cc2c1 | 117 to 118
36 | CCN(CC)c1cccc(-c2ccc(C(=O)O)c(=O)[nH]2)c1 | 256 to 258
37 | CCN(CC)Cc1c(Cl)ccc2cc(Cl)cnc12 | 54
38 | C=CCCCCS(=O)(=O)C[C@@H](C)C(=O)O | 51 to 54
39 | COC(=O)[C@H]1NC(=O)[C@H]1NC(=O)Cc1csc(NC(=O)CCl)n1 (relative stereo) | 120 to 122
40 | Cc1ncsc1C(=O)CCCSc1nnnn1C | 64 to 65
41 | O=C(NC(Cc1ccc(F)cc1)C(=O)O)c1cn2cc(-c3ccc(Cl)cc3)ccc2n1 (stereo not given) | 266
42 | Cc1cc(OCCCC(C)(C)C(=O)O)c(C)c(C)c1OCc1ccccc1 | 105 to 107

Row | Structure (SMILES) | melting point [°C]
43 | CC(=O)N1CCN(c2nc(Cl)ccc2[N+](=O)[O-])CC1 | 137 to 138
44 | COC(=O)NCCCCC(=O)OC[C@@H]1CC(c2ccc(-c3ccc(N4C[C@H](Cn5ccnn5)OC4=O)cc3F)cn2)=NO1 | 90
45 | COc1cc(C=CC(=O)c2ccc(-c3cccs3)s2)ccc1O | 166 to 168
46 | COC(=O)NC1=NC(c2ccc(I)cc2)CN1 (stereo not given) | 229 to 230
47 | N#Cc1cc(-c2ccoc2)c2ccc(OCc3cccc(-c4ccc(F)cc4)n3)cc2c1 | 168 to 170
48 | Fc1cc(Cn2cncn2)cc2c1Cc1c(-c3ccsc3)n[nH]c1-2 | 236 to 239
49 | CCOC(=O)c1cnc2ccc(CC)nc2c1O | 262 to 264
50 | N#CC(=C(Nc1cc(C(F)(F)F)cc(C(F)(F)F)c1)NC1CCC1)S(=O)(=O)c1ccc(Cl)cc1 | 190 to 193
51 | Oc1cccc2c1OCO2 | 62 to 63
52 | COC(=O)C(c1ccccc1)n1cncc1C=O (stereo not given) | 106 to 109
53 | COc1ccc(CCNC(=O)c2nc(N)sc2-c2ccncc2)cc1OC | 167 to 168
54 | CC1(C)C(=O)Nc2cc(C(=O)Nc3ccc(N)cc3)ccc21 | 216 to 218
55 | O=C(O)c1ccc(S(=O)(=O)Oc2ccc(-c3ccc(-c4c(C(=O)c5ccccc5)oc5ccccc45)cc3)cc2[N+](=O)[O-])cc1O | 105 to 107
56 | Cc1nc(N)nc(CCCCCCCCCCO)c1O | 103 to 104
57 | CC(C=CO)c1ccc(-c2ccc(Cl)cc2)cc1 (stereo not given) | 130 to 132
58 | CCNC(=O)[C@H](C)C[C@H](O)[C@H](CC1CCCCC1)NC(=O)[C@H](Cc1cscn1)NC(=O)OC(C)(C)C | 179 to 181
59 | COC(=O)NCc1cc(C(C)=NOCc2ccc(F)cc2)ccc1Cl | 101 to 103
60 | COC(=O)c1cccc(-c2nc(COc3ccc(CO)cc3OC)c(C)o2)c1 | 141 to 142
61 | O=CNc1ccccc1CCO | 49 to 54

More lines, now with the values ahead:

Row | melting point [°C] | Structure (SMILES)
62 | 64 to 66 | CC(C)OC(=O)COc1ccc(C(=O)CN2CCN(c3ccncc3)CC2)cc1
63 | 232 to 233 | CCCNC(=O)c1nc(-c2ccccc2)c(-c2ccc(=O)[nH]n2)s1
64 | 79 to 80 | COC(=S)c1ccncc1Cc1ccccc1
65 | 165 to 166 | Cc1oc(-c2ccccc2)nc1COc1ccc(Cn2cc(C(=O)O)c(-c3ccccc3)n2)cc1
66 | 198 to 199 | CN(C)c1ccc(-n2ccn(C3CCc4ccccc4C3)c2=S)nn1 (stereo not given)
67 | 173 to 175 | CS(=O)(=O)c1nccc(Oc2ccc(NC(=O)c3cc(F)cc(N4CCOCC4)c3)c3ccccc23)n1
68 | 103 to 104 | CCOC(=O)c1cc(-c2ccccc2)n(-c2cccc(C)c2)c1C
69 | 200 to 202 | O=C1NCCN1C(c1ccccc1)c1ccccc1
70 | 221 to 223 | Nc1ccc2[nH]nc(Nc3nc(-c4ccccc4C(F)(F)F)nc4ccccc34)c2c1
71 | 172 to 176 | COc1cc(N2CCN([C@H](C)c3ccc(OC)c(OC)c3)CC2)ccc1Cl
72 | 111 to 113 | CCOC(=O)C1(C)CN(Cc2ccccc2)C(=O)C(=C2SC=CS2)C1=O (stereo not given)
73 | 79 to 80 | OCc1cn(Cc2ccccc2)nc1OCc1ccccc1
74 | 154 to 156 | CC(C)n1c2ccccc2c2sccc(=O)c21
75 | 164 to 166 | CS(=O)(=O)c1ccc(-n2nc(C(F)(F)F)cc2-c2ccc(-c3cocn3)cc2)cc1F
76 | 118 to 120 | Nc1cccc(C(=O)Nc2ccccc2)c1
77 | 213 to 214 | CNc1nc(C)c(-c2ccnc(Nc3ccc(N4CCN(C(C)=O)CC4)cc3)n2)s1
78 | 116 to 119 | Cc1c(SCCCSCc2ccncc2)ccnc1CNc1cnc2ccccc2c1
79 | 138 to 140 | O=C(O)Cc1cc([N+](=O)[O-])ccc1Sc1ccccc1
80 | 172 to 173 | O=C(COc1cc(C(=O)N2CCOCC2)ccc1[N+](=O)[O-])c1ccccc1
81 | 89 | COC(=O)c1c(C)nc2ccc(Br)cc2c1NCc1ccccc1

Row | melting point [°C] | Structure (SMILES)
82 | 217 | O=C(Nc1ncc(C(F)(F)F)o1)C1c2ccccc2Oc2ccc(F)cc21 (racemic)
83 | 83 to 85 | Nc1ccc(C(=O)c2ccccc2)cc1F
84 | 142 to 144 | CCCC(=O)c1cnc2ccc(COC(=O)c3ccccc3)cc2c1Nc1ccccc1C
85 | 225 | Cc1nc2c3c(ccc2n1C)[C@@H](O)[C@H](O)[C@@H](c1ccccc1)N3
86 | 131 to 133 | CCc1noc(-c2cn(-c3cccc(Oc4ccc(N)cc4)c3)cn2)n1
87 | 102 to 103 | CC(C(=O)N(C)C)n1nc(-c2ccccc2)c(Cl)c1Cl (stereo not given)
88 | 98 to 100 | COc1cc(-c2ccccc2)nc(-c2ccc(CBr)cc2)n1
89 | 159 to 160 | COc1ccc(-c2coc3ccc(-c4nnc(C)o4)cc23)cc1F
90 | 235 to 237 | CN(C)c1nc2ccccc2n(-c2ccc(Cl)cc2)c1=O
91 | 167 | COC(=O)C1=C(N)NC(C)=C([N+](=O)[O-])C1c1ccccc1OCCCCCN1CCN(c2ccccc2OC)CC1 (stereo not given)
92 | 183 | CCc1ccccc1NC=C1C(=O)N(c2ccccn2)N=C1C
93 | 156 to 158 | CCc1ccc(NC(=N)c2ccc(SC)cc2)cc1
94 | 192 to 195 | ClCCCn1c2ccccc2c2cc(-c3nc(-c4ccccc4)no3)ncc21
95 | 199 | Cc1csc2[nH]c(C(=O)c3ccccc3)cc12
96 | 95 to 97 | COc1ccc(Cn2nc(CO)c3ccccc32)cc1
97 | 110 to 112 | CC1(C)CCc2ccc(OCCCCN3CCN(c4cccc(Cl)c4Cl)CC3)cc2NC1=O
98 | 227 to 228 | COC(=O)c1ccc(-c2nc(-c3ccc(Cl)cc3)no2)c(N)c1
99 | 97 to 98 | CCCN1Cc2cncn2C(c2ccc(C#N)cc2)C1=O (stereo not given)
100 | 229 to 230 | Cc1nc2c(OCc3c(Cl)ccc(N(C)C(=O)Oc4ccc([N+](=O)[O-])cc4)c3Cl)cccn2c1Br
